Drawing on ChEMBL document CHEMBL1150741, “Polygodial, an antifungal potentiator” (1988), this text covers MIC and Activity for 4 compounds.

The subject of experiment [1] is Wickerhamomyces anomalus. Kind of experiment: Antimicrobial activity against Hansenula anomala IFO 0136 after 2 days. The format is functional. Conditions: IFO 0136, 48 h.
A further experiment has as its system Staphylococcus aureus. Nature of the experiment: Antimicrobial activity against Staphylococcus aureus NCTC 8530 after 2 days. The format is functional. Conditions: NCTC 8530, 48 h.
The test system of the next experiment is Bacillus subtilis. Kind of experiment: Antimicrobial activity against Bacillus subtilis K-49 after 2 days. The format is functional. Conditions: K-49, 48 h.
Another experiment has as its system Micrococcus luteus. Kind of experiment: Antimicrobial activity against Micrococcus lysodeikticus IFO 3333 after 2 days. The format is functional. The settings on record: IFO 3333, 48 h.
In another experiment the test system is Escherichia coli. Kind of experiment: Antimicrobial activity against Escherichia coli IFO 3545 after 2 days. Conditions: IFO 3545, 48 h. It is filed as functional.
The subject of the next experiment is Proteus vulgaris. Kind of experiment: Antimicrobial activity against Proteus vulgaris IAM 12003 after 2 days. The format is functional. The settings on record: IAM 12003, 48 h.
In a further experiment the test system is Pseudomonas aeruginosa. Nature of the experiment: Antimicrobial activity against Pseudomonas aeruginosa IAM 1007 after 2 days. The format is functional. Conditions: IAM 1007, 48 h.
In experiment [2] the test system is Saccharomyces cerevisiae. Kind of experiment: Antimicrobial activity against Saccharomyces cerevisiae IFO 0203 after 2 days. It is filed as functional. The settings on record: IFO 0203, 48 h.
Experiment [3] deals with Schizosaccharomyces pombe. Nature of the experiment: Antimicrobial activity against Schizosaccharomyces pombe IFO 0342 after 2 days. It is filed as functional. The settings on record: IFO 0342, 48 h.
Experiment [4] relates to Cyberlindnera jadinii. Nature of the experiment: Antimicrobial activity against Candida utilis ATCC 42402 after 2 days. The format is functional. Conditions: for MIC: Williopsis jadinii, ATCC 42402, 48 h.
A further experiment deals with Sclerotinia. Kind of experiment: Antimicrobial activity against Sclerotinia libertiana SS after 2 days. The format is functional. Conditions: 48 h.
Another experiment concerns Mucor mucedo. Nature of the experiment: Antimicrobial activity against Mucor mucedo IFO 7684 after 2 days. It is filed as functional. The settings on record: IFO 7684, 48 h.
In experiment [5] the test system is Rhizopus microsporus var. chinensis. Nature of the experiment: Antimicrobial activity against Rhizopus chinensis IFO 4745 after 2 days. The settings on record: IFO 4745, 48 h. It is filed as functional.
The subject of the next experiment is Aspergillus niger. Nature of the experiment: Antimicrobial activity against Aspergillus niger ATCC 6275 after 2 days. Conditions: ATCC 6275, 48 h. The format is functional.
The test system of another experiment is Penicillium crustosum. Kind of experiment: Antimicrobial activity against Penicillium crustosum Thom after 2 days. The format is functional. Conditions: 48 h.
The subject of experiment [6] is Schizosaccharomyces pombe. Nature of the experiment: Antifungal activity against Schizosaccharomyces pombe IFO 0342 in Henneberg medium at pH 7 after 2 days. It is filed as functional. Conditions: IFO 0342, 48 h.
Experiment [7] relates to Cyberlindnera jadinii. Nature of the experiment: Antifungal activity against Candida utilis ATCC 42402 in Malt Wort medium at pH 5 after 2 days. It is filed as functional. Conditions: Williopsis jadinii, ATCC 42402, 48 h.
For experiment [8], the system named is Schizosaccharomyces pombe. Nature of the experiment: Antifungal activity against Schizosaccharomyces pombe IFO 0342 in Malt Wort medium at pH 5 after 2 days. The format is functional. The settings on record: IFO 0342, 48 h.
Experiment [9] relates to Saccharomyces cerevisiae. Nature of the experiment: Antifungal activity against Saccharomyces cerevisiae IFO 0203 in Henneberg medium at pH 5.2 after 2 days. It is filed as functional. The settings on record: IFO 0203, 48 h.
The test system of experiment [10] is Cyberlindnera jadinii. Kind of experiment: Antifungal activity against Candida utilis ATCC 42402 in Henneberg medium at pH 5.2 after 2 days. Conditions: Williopsis jadinii, ATCC 42402, 48 h. It is filed as functional.
Experiment [11] deals with Schizosaccharomyces pombe. Nature of the experiment: Antifungal activity against Schizosaccharomyces pombe IFO 0342 in Henneberg medium at pH 5.2 after 2 days. It is filed as functional. The settings on record: IFO 0342, 48 h.
Experiment [12] concerns Saccharomyces cerevisiae. Nature of the experiment: Antifungal activity against Saccharomyces cerevisiae IFO 0203 in Henneberg medium at pH 7 after 2 days. The format is functional. The settings on record: IFO 0203, 48 h.
The test system of experiment [13] is Cyberlindnera jadinii. Nature of the experiment: Antifungal activity against Candida utilis ATCC 42402 in Henneberg medium at pH 7 after 2 days. It is filed as functional. Conditions: Williopsis jadinii, ATCC 42402, 48 h.
Experiment [14] has as its system Saccharomyces cerevisiae. Nature of the experiment: Antifungal activity against Saccharomyces cerevisiae IFO 0203 in Henneberg medium at pH 3.1 after 2 days. The format is functional. The settings on record: IFO 0203, 48 h.
The test system of experiment [15] is Cyberlindnera jadinii. Kind of experiment: Antifungal activity against Candida utilis ATCC 42402 in Henneberg medium at pH 3.1 after 2 days. The format is functional. The settings on record: Williopsis jadinii, ATCC 42402, 48 h.
In experiment [16] the test system is Schizosaccharomyces pombe. Kind of experiment: Antifungal activity against Schizosaccharomyces pombe IFO 0342 in Henneberg medium at pH 3.1 after 2 days. The format is functional. The settings on record: IFO 0342, 48 h.
Experiment [17] deals with Saccharomyces cerevisiae. Kind of experiment: Antifungal activity against Saccharomyces cerevisiae IFO 0203 assessed as leakage of cellular constituents at 1 to 10 ug/mL by folin reagent method. It is filed as functional, organism-based.
Experiment [18] concerns Saccharomyces cerevisiae. Kind of experiment: Antifungal activity against Saccharomyces cerevisiae IFO 0203 assessed as leakage of cellular constituents at 1 to 10 ug/mL by phenol-sulphuric acid reagent method. The format is functional, organism-based.
In experiment [19] the test system is Saccharomyces cerevisiae. Nature of the experiment: Antifungal activity against Saccharomyces cerevisiae IFO 0203 assessed as organelle disorganization at 50 ug/mL after 10 mins by microscopy. It is filed as functional, organism-based.
Experiment [20] relates to Saccharomyces cerevisiae. Nature of the experiment: Antifungal activity against Saccharomyces cerevisiae IFO 0203 assessed as fetal loss of cellular constituents at 50 ug/mL after 10 mins by microscopy. The format is functional, organism-based.
In experiment [21] the test system is Wickerhamomyces anomalus. Nature of the experiment: Antifungal activity against Hansenula anomala IFO 0136 in Henneberg medium at pH 5.2 after 2 days. The format is functional. The settings on record: IFO 0136, 48 h.
The test system of experiment [22] is Wickerhamomyces anomalus. Nature of the experiment: Antifungal activity against Hansenula anomala IFO 0136 in Henneberg medium at pH 7 after 2 days. The format is functional. The settings on record: IFO 0136, 48 h.
Experiment [23] relates to Wickerhamomyces anomalus. Kind of experiment: Antifungal activity against Hansenula anomala IFO 0136 in Henneberg medium at pH 3.1 after 2 days. It is filed as functional. The settings on record: IFO 0136, 48 h.
The test system of experiment [24] is Saccharomyces cerevisiae. Kind of experiment: Antifungal activity against Saccharomyces cerevisiae IFO 0203 in Malt Wort medium at pH 5 after 2 days. It is filed as functional. Conditions: IFO 0203, 48 h.
Experiment [25] has as its system Wickerhamomyces anomalus. Kind of experiment: Antifungal activity against Hansenula anomala IFO 0136 in Malt Wort medium at pH 5 after 2 days. It is filed as functional. Conditions: IFO 0136, 48 h.

Values after ≈ are worked out from the molar mass of the structure shown. Active and inactive are the calls of the source. No cut-off for these calls is given here. Starred links: 1 amine or outer side, 2 acyl side, 3 side chain; linkers in the order of their positions; H or OH if unused. Positions of bridges follow the written chain, without caps; N, C: chain ends. Non-standard residues stand in square brackets, D forms with d. Residues, ends and D or L forms follow the SMILES beside them. Chains are numbered I, II in the order given. Actinocin(9to1) = Cc1c2oc3c(C)ccc(C(=O)[*:1])c3nc-2c(C(=O)[*:2])c(N)c1=O; NMeV = CN[C@H](C(=O)O)C(C)C; Sar = CNCC(=O)O

Take `C=C1[C@@H](C)CC[C@@]2(C)[C@H]1CC=C(C=O)[C@]2(O)C=O`: the MIC against Wickerhamomyces anomalus [1] is 25 µg/mL (≈ 101 µM); against Staphylococcus aureus it was more than 100 µg/mL; with Bacillus subtilis, more than 100 µg/mL; with Micrococcus luteus it was more than 100 µg/mL; in the experiment on Escherichia coli, more than 100 µg/mL; against Proteus vulgaris it was more than 100 µg/mL. The MIC against Pseudomonas aeruginosa was more than 100 µg/mL; with Saccharomyces cerevisiae [2], 1.56 µg/mL (≈ 6.28 µM); in [3], 25 µg/mL (≈ 101 µM); in the experiment on Cyberlindnera jadinii [4] it was 3.13 µg/mL (≈ 12.6 µM); against Sclerotinia, 3.13 µg/mL (≈ 12.6 µM); with Mucor mucedo it was 25 µg/mL (≈ 101 µM). Also, the MIC in [5] is 100 µg/mL (≈ 403 µM); against Aspergillus niger, 50 µg/mL (≈ 201 µM); in the experiment with Penicillium crustosum, 50 µg/mL (≈ 201 µM).

In the case of `Cc1c2oc3c(C)ccc(C(=O)N[C@@H]4C(=O)N[C@H](C(C)C)C(=O)N5CCC[C@H]5C(=O)N(C)CC(=O)N(C)[C@@H](C(C)C)C(=O)O[C@@H]4C)c3nc-2c(C(=O)N[C@@H]2C(=O)N[C@H](C(C)C)C(=O)N3CCC[C@H]3C(=O)N(C)CC(=O)N(C)[C@@H](C(C)C)C(=O)O[C@@H]2C)c(N)c1=O` (I: T[dV]P[Sar][NMeV] / II: T[dV]P[Sar][NMeV]; ester I:1-I:C, II:1-II:C; linker I:N-II:N via Actinocin(9to1)), the result in the experiment on Cyberlindnera jadinii [4] was inactive.

In the case of `CC1(C)CCC[C@]2(C)[C@@H](C=O)C(C=O)=CC[C@@H]12` [POLYGODIAL], the minimal inhibitory concentration (MIC) is more than 25 µg/mL in [6]; 1.56 µg/mL (≈ 6.66 µM) against Cyberlindnera jadinii [7]; 6.25 µg/mL (≈ 26.7 µM) in experiment [8]; 1.56 µg/mL (≈ 6.66 µM) in the experiment on Saccharomyces cerevisiae [9]; 3.13 µg/mL (≈ 13.4 µM) in the experiment on Cyberlindnera jadinii [10]; 25 µg/mL (≈ 107 µM) in experiment [11]. Moreover, the MIC is more than 25 µg/mL against Saccharomyces cerevisiae [12]; more than 25 µg/mL in the experiment on Cyberlindnera jadinii [13]; 0.2 µg/mL (≈ 0.853 µM) in the experiment on Saccharomyces cerevisiae [14]; 0.78 µg/mL (≈ 3.33 µM) against Cyberlindnera jadinii [15]; 6.25 µg/mL (≈ 26.7 µM) in experiment [16]; 6.25 µg/mL (≈ 26.7 µM) against Wickerhamomyces anomalus [21]. Further, the MIC was more than 25 µg/mL with Wickerhamomyces anomalus [22]; 1.56 µg/mL (≈ 6.66 µM) against Wickerhamomyces anomalus [23]; 0.78 µg/mL (≈ 3.33 µM) in the experiment with Saccharomyces cerevisiae [24]; 1.56 µg/mL (≈ 6.66 µM) against Wickerhamomyces anomalus [25]; 1.56 µg/mL (≈ 6.66 µM) in the experiment with Wickerhamomyces anomalus [1]; more than 100 µg/mL against Staphylococcus aureus. Also, the MIC in the experiment with Bacillus subtilis is more than 100 µg/mL; in the experiment with Micrococcus luteus it was more than 100 µg/mL; with Escherichia coli it was more than 100 µg/mL; in the experiment on Proteus vulgaris, more than 100 µg/mL; with Pseudomonas aeruginosa, more than 100 µg/mL; against Saccharomyces cerevisiae [2], 0.78 µg/mL (≈ 3.33 µM). The MIC in experiment [3] amounted to 6.25 µg/mL (≈ 26.7 µM); against Cyberlindnera jadinii [4], 1.56 µg/mL (≈ 6.66 µM); in the experiment on Sclerotinia it was 1.56 µg/mL (≈ 6.66 µM); in the experiment with Mucor mucedo it was 6.25 µg/mL (≈ 26.7 µM); in experiment [5], 12.5 µg/mL (≈ 53.3 µM); with Aspergillus niger it was 25 µg/mL (≈ 107 µM). The same compound had an MIC with Penicillium crustosum of 25 µg/mL (≈ 107 µM). The result in the experiment with Saccharomyces cerevisiae [17], in the experiment with Saccharomyces cerevisiae [18], in the experiment on Saccharomyces cerevisiae [19] and in the experiment on Saccharomyces cerevisiae [20] was Active.

With `CC1(C)CCC[C@@]2(C)[C@H]1CC=C(C=O)[C@]2(O)C=O` [WARBURGANAL], the MIC with Wickerhamomyces anomalus [1] was 12.5 µg/mL (≈ 49.9 µM); in the experiment with Staphylococcus aureus, more than 100 µg/mL; in the experiment on Bacillus subtilis, more than 100 µg/mL; in the experiment on Micrococcus luteus, more than 100 µg/mL; in the experiment with Escherichia coli, more than 100 µg/mL; in the experiment with Proteus vulgaris, more than 100 µg/mL. In addition, the MIC against Pseudomonas aeruginosa is more than 100 µg/mL; with Saccharomyces cerevisiae [2], 3.13 µg/mL (≈ 12.5 µM); in experiment [3], 12.5 µg/mL (≈ 49.9 µM); against Cyberlindnera jadinii [4], 3.13 µg/mL (≈ 12.5 µM); with Sclerotinia, 3.13 µg/mL (≈ 12.5 µM); in the experiment with Mucor mucedo, 25 µg/mL (≈ 99.9 µM). Besides, the MIC in [5] amounted to 100 µg/mL (≈ 399 µM); in the experiment with Aspergillus niger, 50 µg/mL (≈ 200 µM); in the experiment on Penicillium crustosum, 50 µg/mL (≈ 200 µM).
